Data: publication PMC12298883, “Discovery of Cyclopentane-Based Phospholipids as Miltefosine Analogs with Superior Potency and Enhanced Selectivity Against Naegleria fowleri” (Pharmaceuticals, 2025)

Columns and labels:
N. fowleri trophozoites = assay: Anti-amoebic viability assay (CellTiter-Blue) with microscopic observation; format: cell-based, Naegleria fowleri; conditions: for Selectivity Index: CC50 of C6 glial cell divided by IC50 of inhibition of N. fowleri; for Relative Potency to Miltefosine: IC50 of miltefosine divided by IC50 of compound, N. fowleri; for IC50: Naegleria fowleri, 48 h, N. fowleri trophozoites, viability, mean ± SD of three assays, read-out: IC50 of Inhibition of N. fowleri; for fold increase in potency of anti-amoebic activity relative to corresponding cis-configured derivative: trans vs cis 1,2-restricted derivative with same alkyl chain
Experimental: (§1) A viability assay was performed to evaluate the inhibitory activity of the tested compounds by determining their IC50 values against N. fowleri, using miltefosine as a reference drug. To assess the selectivity of the tested compounds relative to miltefosine, cytotoxic values that reduced the viability of C6 glial cells by 50% were established.
(§2) N. fowleri Carter NF69 strain (ATCC 30215; American Type Culture Collection, Manassas, VA, USA) was used. Amoeba trophozoites were cultured and maintained in Nelson’s medium containing 5% foetal bovine serum (FBS; Gibco, Grand Island, NY, USA) and 1% penicillin/streptomycin (P/S; Gibco, Grand Island, NY, USA) at 37 °C [56]. C6 rat glial cells (C6 cells; ATCC CCL-107) were cultured in Dulbecco’s Modified Eagle’s Medium (DMEM; Gibco, Grand Island, NY, USA) supplemented with 10% FBS (Gibco, Grand Island, NY, USA) and 1% P/S (Gibco, Grand Island, NY, USA) at 37 °C in a humidified incubator under 5% CO2 atmosphere.
N. fowleri trophozoites (5 × 10^4 cells/well) were seeded in a 96-well microplate (Thermo Fisher Scientific, Waltham, MA, USA) in Nelson’s medium and incubated at 37 °C overnight. N. fowleri trophozoites were treated with 2-fold serial dilutions of tested compounds (from 0 to 200 µM) or miltefosine (150 µM) and incubated at 37 °C for 48 h. The viability of the amoebae was determined using the CellTiter-Blue® Cell viability assay (Promega, Madison, WI, USA). Inhibitory concentration 50 (IC50) and IC90 were calculated by the nonlinear regression method using GraphPad Prism 9.1.0 software (GraphPad Software, San Diego, CA, USA). Amoebae treated with 0.1% DMSO were used as a control, representing 100% cell viability. Morphological changes of the amoebae were observed microscopically.

[1] = Cytotoxicity assay for C6 cells (CellTiter-Blue); format: cell-based; conditions: rat, C6 glial cells, viability, mean ± SD
Experimental: as §1, §2
The potential cytotoxicity of tested compounds and miltefosine in C6 cells was analysed. The cells were seeded in a 96-well microplate (Thermo Fisher Scientific; 2 × 10^4 cells/well), respectively, and incubated overnight until 80% confluent. Serially diluted tested compounds and miltefosine were treated to the cells as described above. Morphological changes of the cells were observed by microscopic examination. Cell viability was determined using the CellTiter-Blue® Cell viability assay (Promega, […], USA). The cytotoxic concentrations 50 (CC50) of tested compounds and miltefosine were calculated using GraphPad Prism 9.1.0 software (GraphPad Software, San Diego, CA, USA). The […] (SI) was determined by the ratio between CC50 and IC50. Cells treated with 0.1% DMSO, which was confirmed not to alter the morphology of the cells by microscopic examination, were used as controls with 100% cell viability.

## CCCCCCCCCCCCO[C@H]1CCC[C@H]1COP(=O)([O-])OCC[N+](C)(C)C [Compound 1a]
N. fowleri trophozoites
  Selectivity Index: >2.47
  Relative Potency to Miltefosine: ~0.90 fold
  IC50: 162 ± 1.02 µM
[1]
  CC50: > 400 µM

## CCCCCCCCCCCCCCCCCCCCCCO[C@H]1CCC[C@H]1COP(=O)([O-])OCC[N+](C)(C)C [Compound 1e]
N. fowleri trophozoites
  Selectivity Index: 0.69
  Relative Potency to Miltefosine: 0.88 fold
  IC50: 166 ± 68 µM
[1]
  CC50: 114 ± 3.2 µM

## CCCCCCCCCCCCCCCCCCOC[C@@H]1CCC[C@H]1OP(=O)([O-])OCC[N+](C)(C)C [Compound 3c]
N. fowleri trophozoites
  Selectivity Index: 0.77
  Relative Potency to Miltefosine: 1.92 fold
  IC50: 76.3 ± 1.56 µM
[1]
  CC50: 58.5 ± 2.08 µM

## CCCCCCCCCCCCCO[C@H]1CCC[C@H]1COP(=O)([O-])OCC[N+](C)(C)C [Compound 1b]
N. fowleri trophozoites
  Selectivity Index: 2.69
  Relative Potency to Miltefosine: 3.74 fold
  IC50: 39.1 ± 0.6 µM
[1]
  CC50: 105 ± 4.76 µM

## CCCCCCCCCCCCCCCCCCCCCCO[C@@H]1CCC[C@H]1COP(=O)([O-])OCC[N+](C)(C)C [Compound 2d]
N. fowleri trophozoites
  Selectivity Index: 1.28
  Relative Potency to Miltefosine: 2.63 fold
  IC50: 55.6 ± 3.32 µM
  fold increase in potency of anti-amoebic activity relative to corresponding cis-configured derivative: 2.98 fold
[1]
  CC50: 71.03 ± 0.61 µM

## CCCCCCCCCCCCCCCCCCO[C@@H]1CCC[C@H]1COP(=O)([O-])OCC[N+](C)(C)C [Compound 2b]
N. fowleri trophozoites
  Selectivity Index: 2.94
  Relative Potency to Miltefosine: 6.18 fold
  IC50: 23.7 ± 0.5 µM
  fold increase in potency of anti-amoebic activity relative to corresponding cis-configured derivative: 2.19- to 3.07 fold
[1]
  CC50: 69.71 ± 0.04 µM

## CCCCCCCCCCCCCCCCCCO[C@H]1CCC[C@H]1COP(=O)([O-])OCC[N+](C)(C)C [Compound 1c]
N. fowleri trophozoites
  Selectivity Index: 2.18
  Relative Potency to Miltefosine: 2.01 fold
  IC50: 72.7 ± 2.32 µM
[1]
  CC50: 158.4 ± 0.71 µM

## CCCCCCCCCCCCOC[C@@H]1CCC[C@H]1OP(=O)([O-])OCC[N+](C)(C)C [Compound 3a]
N. fowleri trophozoites
  Selectivity Index: >1.43
  Relative Potency to Miltefosine: 0.52 fold
  IC50: 279.4 ± 0.94 µM
[1]
  CC50: > 400 µM

## CCCCCCCCCCCCCCCCCCCCO[C@H]1CCC[C@H]1COP(=O)([O-])OCC[N+](C)(C)C [Compound 1d]
N. fowleri trophozoites
  Selectivity Index: 1.59
  Relative Potency to Miltefosine: 3.4 fold
  IC50: 43.6 ± 1.02 µM
[1]
  CC50: 69.49 ± 0.16 µM

## CCCCCCCCCCCCCCCCCCCCO[C@@H]1CCC[C@H]1COP(=O)([O-])OCC[N+](C)(C)C [Compound 2c]
N. fowleri trophozoites
  Selectivity Index: 2.19
  Relative Potency to Miltefosine: 7.46 fold
  IC50: 19.6 ± 0.44 µM
  fold increase in potency of anti-amoebic activity relative to corresponding cis-configured derivative: 2.19- to 3.07 fold
[1]
  CC50: 43 ± 8.37 µM
